According to US8772504B2, “Substituted benzoxazole, benzimidazole, oxazolopyridine and imidazopyridine derivatives as gamma secretase modulators” (Janssen Pharmaceuticals, Inc., priority 2009, dated 2014):

Assays:
Aβtotal = assay: In vivo efficacy Method 1: brain soluble Aβtotal by ELISA; set-up: species or system mouse; settings: Table 4a, single oral dose, overnight fasted animals, sacrificed after 4 h, soluble fraction of brain homogenates
Outline: (§1)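 Overnight-fasted rodents or APP transgenic mice given a single oral dose in 20% Captisol or 20% hydroxypropyl β-cyclodextrin and sacrificed after 4 h. Right-hemisphere homogenate high-speed supernatant used: neutralized portion for Aβtotal, Oasis HLB-purified and concentrated eluate for Aβ42, both quantified by ELISA.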

Aβ42 = assay: In vivo efficacy Method 1: brain soluble Aβ42 by ELISA; set-up: species or system mouse; settings: Table 4a, single oral dose, overnight fasted animals, sacrificed after 4 h, soluble fraction of brain homogenates
Outline: as §1

Row | Structure (SMILES) | Aβtotal (% Ctrl) _Mean (Aβtotal) | Aβ42 (% Ctrl) _Mean (Aβ42)
1 | COc1cc(Nc2cccc3c2nc(-c2ccc(F)cc2)n3C)ccc1-n1cnc(C)c1 [Compound 1] | 100 % Ctrl | 57 % Ctrl
2 | COc1cc(Nc2cccc3c2nc(-c2ccc(F)cc2)n3C)ccc1-n1cnc(C)n1 [Compound 4] | 92 % Ctrl | 64 % Ctrl
3 | COc1cc(Nc2nccc3c2nc(-c2ccc(F)cc2)n3C)ccc1-n1cnc(C)c1 [Compound 8] | 91 % Ctrl | 46 % Ctrl
4 | COc1nc(Nc2cccc3c2nc(-c2ccc(F)cc2)n3C)ccc1-n1cnc(C)c1 [Compound 15] | 83 % Ctrl | 31 % Ctrl
5 | CCn1c(CC2CC2)nc2c(Nc3ccc(-n4cnc(C)c4)c(OC)c3)cccc21 [Compound 36] | 95 % Ctrl | 79 % Ctrl
6 | COc1cc(Nc2cccc3c2nc(Oc2ccccc2)n3C)ccc1-n1cnc(C)c1 [Compound 61] | 97 % Ctrl | 89 % Ctrl
7 | Cc1cn(-c2ccc(Nc3cccc4c3nc(-c3ccc(F)cc3)n4C)cc2F)cn1 [Compound 67] | 99 % Ctrl | 71 % Ctrl
8 | Cc1ncn(-c2ccc(Nc3cccc4c3nc(-c3ccc(F)cc3)n4C(C)C)cc2)n1.Cl.Cl [Compound 73] | 97 % Ctrl | 87 % Ctrl
9 | COc1cc(Nc2cccc3c2nc(-c2ccc(F)cc2)n3C(C)C)ccc1-n1cnc(C)n1.Cl.Cl [Compound 75] | 92 % Ctrl | 67 % Ctrl
10 | Cc1ncn(-c2ccc(Nc3cccc4c3nc(-c3ccc(F)cc3)n4C(C)C)cn2)n1 [Compound 76] | 102 % Ctrl | 86 % Ctrl
11 | COc1cc(Nc2nccc3c2nc(-c2ccc(F)cc2)n3C)ccc1-n1cnc(C)n1 [Compound 92] | 103 % Ctrl | 60 % Ctrl
12 | COc1nc(Nc2cc(F)cc3c2nc(-c2ccc(F)cc2)n3C)ccc1-n1cnc(C)c1 [Compound 115] | 93 % Ctrl | 97 % Ctrl
13 | COc1cc(Nc2nccc3c2nc(-c2ccccc2C(F)(F)F)n3C)ccc1-n1cnc(C)n1 [Compound 130] | 94 % Ctrl | 75 % Ctrl
14 | COc1cc(Nc2nc(C)cc3c2nc(-c2ccc(F)cc2)n3C)ccc1-n1cnc(C)n1 [Compound 164] | 97 % Ctrl | 72 % Ctrl
